We go through 6 molecules from patent US5716943A, “Phosphinic acid derivatives with metallopeptidase inhibitory activity” (Zambon Group. S.p.A., priority 1995, dated 1998).

One experiment has as its target T1, NEP (Rattus norvegicus, UniProt P07861).
T1 construct: evaluated in rat kidney cortex membranes; from tissue; host or cells: kidney cortex membranes of male Sprague-Dawley rats
T1 sequence (P07861 1-750): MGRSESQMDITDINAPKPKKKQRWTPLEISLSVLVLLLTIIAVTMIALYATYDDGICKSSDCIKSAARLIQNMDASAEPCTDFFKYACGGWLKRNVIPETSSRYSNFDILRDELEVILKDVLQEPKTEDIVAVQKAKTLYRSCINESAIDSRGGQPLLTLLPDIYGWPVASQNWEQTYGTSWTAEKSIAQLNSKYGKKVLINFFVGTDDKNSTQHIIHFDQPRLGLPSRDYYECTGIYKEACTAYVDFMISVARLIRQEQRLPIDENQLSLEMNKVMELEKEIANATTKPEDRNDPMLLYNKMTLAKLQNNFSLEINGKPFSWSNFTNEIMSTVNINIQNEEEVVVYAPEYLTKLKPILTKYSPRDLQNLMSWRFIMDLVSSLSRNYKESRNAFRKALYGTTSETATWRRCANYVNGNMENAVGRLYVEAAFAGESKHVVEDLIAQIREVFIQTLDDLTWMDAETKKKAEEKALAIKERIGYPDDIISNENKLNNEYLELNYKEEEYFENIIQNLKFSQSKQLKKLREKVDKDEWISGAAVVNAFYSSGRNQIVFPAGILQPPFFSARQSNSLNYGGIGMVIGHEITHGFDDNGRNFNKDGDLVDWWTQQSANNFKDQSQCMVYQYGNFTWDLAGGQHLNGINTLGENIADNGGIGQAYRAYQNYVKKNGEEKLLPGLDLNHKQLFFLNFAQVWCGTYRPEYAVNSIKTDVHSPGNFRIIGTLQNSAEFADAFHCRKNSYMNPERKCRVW
Nature of the experiment: NEP-inhibitory activity in rat kidney cortex membranes, [3H][Leu5]-enkephaline substrate. Format: biochemical. Conditions: [3H][Leu5]-enkephaline 15 nM, 20 minutes at 30° C., pH 7.4, compounds of formula I tested as lithium salts. The method, then:
a) NEP-inhibitory activity
The NEP-inhibitory activity was evaluated in rat kidney cortex membranes prepared according to the procedure described by T. Maeda et al. in Biochim biophys. Acta 1983, 731 (1), 115-120.
By working at 0°-4° C. kidneys were removed from male Sprague-Dawley rats weighing approximately 300 g.
Kidney cortex was carefully dissected, finely minced and suspended in a homogenization buffer (10 mM sodium phosphate pH 7.4 containing 1 mM MgCl2, 30 mM NaCl, 0.02% NaN3) 1:15 weight/volume.
The tissue was then homogenized for 30 seconds by using an Ultra-Turrax homogenizer.
Approximately 10 ml of homogenate were layered over 10 ml of sucrose (41% weight/volume) and centrifuged at 31200 rpm for 30 minutes at 4° C. in a fixed angle rotor.
The membranes were collected from the buffer/sucrose interface, washed twice with 50 mM TRIS/HCl buffer (pH 7.4) and resuspended into the same buffer for storage.
The membranes were stored in small aliquots at -80° C. until use.
The NEP-inhibitory activity was evaluated according to the method described by C. Llorens et al., in Eur. I. Pharmacol., 69, (1981), 113-116, as reported hereinafter.
Aliquots of the membrane suspension prepared as above described (concentration 5 μg/ml of proteins) were preincubated in the presence of an aminopeptidase inhibitor (Bestatin--1 mM) for 10 minutes at 30° C.
[^3 H][Leu^5 ]-enkephaline (15 nM) and buffer TRIS/HCl pH 7.4 (50 mM) were added in order to obtain a final volume of 100 μl.
Incubation (20 minutes at 30° C.) was stopped by adding HCl 0.1 M (100 μl).
The formation of the metabolite [^3 H]Tyr-Gly-Gly was quantified, after separation of the unreacted substrate by chromatography on polystirene columns (Porapak Q), by measuring the relative radioactivity through liquid scintillation.
The percentage of inhibition of the metabolite formation in the membrane preparations treated with the compounds of formula I and with the comparative compounds with respect to the untreated membrane preparations was expressed as IC50 (nM) value.
(§1) The compounds of formula I were tested in the form of lithium salts.

Another experiment addresses T2, ACE (Oryctolagus cuniculus, UniProt P12822).
T2 construct: purchased SIGMA; host or cells: rabbit lung
T2 sequence (P12822 34-1310): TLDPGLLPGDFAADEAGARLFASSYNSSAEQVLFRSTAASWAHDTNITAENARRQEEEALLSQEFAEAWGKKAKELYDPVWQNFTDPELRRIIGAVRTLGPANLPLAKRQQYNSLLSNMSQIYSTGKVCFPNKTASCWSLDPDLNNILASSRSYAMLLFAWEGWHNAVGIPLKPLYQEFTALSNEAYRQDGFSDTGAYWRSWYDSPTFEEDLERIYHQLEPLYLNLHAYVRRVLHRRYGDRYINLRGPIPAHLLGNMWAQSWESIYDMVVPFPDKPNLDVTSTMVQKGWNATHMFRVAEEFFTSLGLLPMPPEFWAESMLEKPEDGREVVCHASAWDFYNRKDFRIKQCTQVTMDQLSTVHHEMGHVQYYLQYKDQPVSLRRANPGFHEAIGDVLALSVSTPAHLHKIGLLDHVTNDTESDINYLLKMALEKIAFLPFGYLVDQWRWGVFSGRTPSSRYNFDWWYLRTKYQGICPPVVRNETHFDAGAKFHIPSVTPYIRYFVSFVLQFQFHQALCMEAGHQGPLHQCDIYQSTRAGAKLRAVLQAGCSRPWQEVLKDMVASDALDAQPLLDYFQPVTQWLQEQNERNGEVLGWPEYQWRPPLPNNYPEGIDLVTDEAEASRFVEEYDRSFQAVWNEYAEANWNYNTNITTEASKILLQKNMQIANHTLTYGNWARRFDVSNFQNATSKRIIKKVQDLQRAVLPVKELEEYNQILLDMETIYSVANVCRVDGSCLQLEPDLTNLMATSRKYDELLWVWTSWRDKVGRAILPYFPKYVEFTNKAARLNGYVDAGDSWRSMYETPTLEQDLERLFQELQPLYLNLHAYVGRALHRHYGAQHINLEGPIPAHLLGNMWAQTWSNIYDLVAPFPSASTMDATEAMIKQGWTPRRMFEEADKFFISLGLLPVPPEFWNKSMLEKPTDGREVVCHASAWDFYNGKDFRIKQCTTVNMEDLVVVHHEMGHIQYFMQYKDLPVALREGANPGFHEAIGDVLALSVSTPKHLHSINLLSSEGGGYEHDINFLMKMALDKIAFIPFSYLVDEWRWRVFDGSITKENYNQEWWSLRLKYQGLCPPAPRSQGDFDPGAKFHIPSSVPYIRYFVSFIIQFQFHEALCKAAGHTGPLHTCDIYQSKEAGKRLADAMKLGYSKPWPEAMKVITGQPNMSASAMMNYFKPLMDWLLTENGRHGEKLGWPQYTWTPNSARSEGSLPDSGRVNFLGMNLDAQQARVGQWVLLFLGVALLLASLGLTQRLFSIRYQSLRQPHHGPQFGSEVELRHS
The experiment in a line: ACE-inhibitory activity, FAPGG substrate, absorbance at 340 nm. Type of experiment: biochemical. Conditions: ACE purified by lung rabbit; FAPGG 0.8 mM; 37° C.; compounds of formula I tested as lithium salts. As to the method:
b) ACE-inhibitory activity
50 μM of ACE (250 mU/ml purified by lung rabbit, EC 3.4.15.1 SIGMA) were preincubated with 50 μl of the compound of formula I or of the comparison compound in thermostated cuvettes at 37° C.
The reaction was started by adding furylacryloylphenylalanylglycylglycine 0.8 mM (FAPGG-SIGMA).
Contemporaneously, by using a Beckman DU-50 spectrophotometer provided with a program for calculating delta A/minutes and regression coefficients of the enzyme kinetics curves, the absorbance at 340 10^-9 m was recorded in continuo for 5 minutes.
The percentage of enzyme inhibition in the preparations treated with the compounds of formula I or with the comparison compounds with respect to the untreated preparations was expressed as IC50 (nM) value.
as §1

Molecules are shown by their SMILES.

Broadly, the IC50 is the concentration that inhibits the measured activity by half. Regarding `COCCOCC(CC1(C(=O)N[C@H]2CC[C@@H](C(=O)O)CC2)CCCC1)C(=O)O` (relative stereo) [Candoxatrilat, 3-[1-[(Cis-4-carboxycyclohexyl)carbamoyl]cyclopentyl]-2-(2-methoxyethoxymethyl)-propionic acid, reference compound], the IC50 on NEP was 160 nM. The “ACE-inhibitory activity IC50 (nM)” value at ACE is reported as “not active”. `C[C@H](CS)C(=O)N1CCC[C@H]1C(=O)O` [Captopril, reference compound]: the “NEP-inhibitory activity IC50 (nM)” value on NEP is listed as “not active”. With `CC(C)CC(CP(=O)(O)CNC(=O)OCc1ccccc1)C(=O)N[C@@H](Cc1ccc(-c2ccccc2)cc1)C(=O)O` (stereo partly drawn) [Compound 2, N-[3-[(benzyloxycarbonylaminomethyl)(hydroxy)phosphinyl]-2-isobutyl-propionyl]-(1,1'-biphenyl-4-yl)-L-alanine], the IC50 at NEP came out at 36 nM; on ACE, 6.4 nM. Regarding `O=C(NCP(=O)(O)CC(Cc1ccccc1)C(=O)N[C@@H](Cc1ccc(-c2ccccc2)cc1)C(=O)O)OCc1ccccc1` (stereo partly drawn) [Compound 3, N-[3-[(benzyloxycarbonylaminomethyl)(hydroxy)phosphinyl]-2-benzyl-propionyl]-(1,1'-biphenyl-4-yl)-L-alanine], the results for the IC50 at NEP and on ACE were 252 nM and 30 nM, respectively. As for `O=C(NCP(=O)(O)CC(Cc1cccs1)C(=O)N[C@@H](Cc1ccc(-c2ccccc2)cc1)C(=O)O)OCc1ccccc1` (stereo partly drawn) [Compound 4, N-[3-[(benzyloxycarbonylaminomethyl)(hydroxy)phosphinyl]-2-(2-thienylmethyl)propionyl]-(1,1'-biphenyl-4-yl)-L-alanine], the IC50 at NEP is 335 nM; on ACE, 12 nM. As to `CC(C)CC(CP(=O)(O)CNC(=O)OCc1ccccc1)C(=O)N[C@@H](Cc1ccc(-c2nccs2)cc1)C(=O)O` (stereo partly drawn) [Compound 5, N-[3-[(benzyloxycarbonylaminomethyl)(hydroxy)phosphinyl]-2-isobutyl-propionyl]-[4-(2-thiazolyl)-phenyl]-L-alanine], the figures for the IC50 at NEP and on ACE were 48.5 nM and 25 nM, respectively.
